# Results: patent US12454525B2, “IL4I1 inhibitors and methods of use” (Merck Sharp & Dohme LLC, priority 2020, dated 2025)
# Target: T1, recombinant IL4I1 (Homo sapiens, UniProt Q96RQ9)
# T1 construct: purchased R&D Systems 5684-AO-020
# T1 sequence (Q96RQ9 22-567): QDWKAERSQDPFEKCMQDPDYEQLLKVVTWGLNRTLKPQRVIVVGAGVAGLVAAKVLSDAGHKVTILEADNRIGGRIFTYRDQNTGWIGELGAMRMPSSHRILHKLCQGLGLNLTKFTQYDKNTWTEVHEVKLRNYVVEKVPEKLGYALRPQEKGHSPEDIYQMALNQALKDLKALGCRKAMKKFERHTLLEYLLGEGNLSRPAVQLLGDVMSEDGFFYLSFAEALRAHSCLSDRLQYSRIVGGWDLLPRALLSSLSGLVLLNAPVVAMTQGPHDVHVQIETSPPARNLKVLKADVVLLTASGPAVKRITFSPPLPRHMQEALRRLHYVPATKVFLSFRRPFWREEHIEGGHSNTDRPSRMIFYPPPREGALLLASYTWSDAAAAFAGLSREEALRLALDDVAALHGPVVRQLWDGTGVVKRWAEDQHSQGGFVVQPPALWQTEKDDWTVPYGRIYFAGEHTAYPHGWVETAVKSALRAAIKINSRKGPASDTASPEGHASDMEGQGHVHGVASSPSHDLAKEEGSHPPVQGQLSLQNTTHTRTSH
# Experiment: IL4I1 Enzymatic Assay (Amplex Red/HRP coupled H2O2 detection)
# Format: biochemical
# Conditions: 240 min; four-hour pre-incubation with compound; 1 nM IL4I1, 1 mM each Phe/Tyr/Trp; ten-point titration; fluorescence readout; read-out: Potency EC50 (nM) (240 min)
# Outline: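 Recombinant IL4I1 at 1 nM final, pre-incubated 4 h with compound (0.1% DMSO) at ambient temperature in 50 mM Hepes pH 7.0, 0.005% Tween20; 1 mM each Phe/Tyr/Trp, 120 min, H2O2 read via Amplex Red/HRP fluorescence (544/590 nm). EC50 from ten-point four-parameter fit.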
row,EC50 [nM],Compound
1,8,"O=c1[nH]c2ccccc2n1C[C@@H]1C[C@H]1c1ccccc1 [Example 61, 1-{[(1R,2R)-2-phenylcyclopropyl]methyl}-1,3-dihydro-2H-benzimidazol-2-one]"
2,1240,"O=c1[nH]c2ccccc2n1CCN1CCCCC1 [Example 62, 1-[2-(piperidin-1-yl)ethyl]-1,3-dihydro-2H-benzimidazol-2-one]"
3,4530,"CC(C)(C)c1ccnc(Cn2c(=O)[nH]c3ccccc32)c1 [Example 63, 1-[(4-tert-butylpyridin-2-yl)methyl]-1,3-dihydro-2H-benzimidazol-2-one]"
4,56,"CC(=O)NCc1ccc(Cn2c(=O)[nH]c3ccc(Cl)cc32)cc1 [Example 64, N-(4-((6-chloro-2-oxo-2,3-dihydro-1H-benzo[d]imidazol-1-yl)methyl)benzyl)acetamide]"
5,24,"CC(=O)NCc1ccc(Cn2c(=O)[nH]c3ccc(C)cc32)cc1 [Example 65, N-(4-((6-methyl-2-oxo-2,3-dihydro-1H-benzo[d]imidazol-1-yl)methyl)benzyl)acetamide]"
6,16,"CN(C)C(=O)Cc1ccc(Cn2c(=O)[nH]c3ccc(F)cc32)cc1 [Example 66, 2-(4-((6-fluoro-2-oxo-2,3-dihydro-1H-benzo[d]imidazol-1-yl)methyl)phenyl)-N,N-dimethylacetamide]"
7,9,"CNC(=O)Cc1ccc(Cn2c(=O)[nH]c3ccc(F)cc32)cc1 [Example 67, 2-(4-((6-fluoro-2-oxo-2,3-dihydro-1H-benzo[d]imidazol-1-yl)methyl)phenyl)-N-methylacetamide]"
8,1390,"O=c1[nH]c2c(F)cccc2n1Cc1ccccc1 [Example 68, 1-benzyl-4-fluoro-1,3-dihydro-2H-benzo[d]imidazol-2-one]"
9,2270,"O=c1[nH]c2cc(F)c(F)cc2n1Cc1ccccc1 [Example 69, 1-benzyl-5,6-difluoro-1,3-dihydro-2H-benzo[d]imidazol-2-one]"
10,14,"O=c1[nH]c2ccc(F)cc2n1Cc1ccc2c(c1)CCC2 [Example 70, 1-((2,3-dihydro-1H-inden-5-yl)methyl)-6-fluoro-1,3-dihydro-2H-benzo[d]imidazol-2-one]"
11,45,"CC(C)Oc1cccc(Cn2c(=O)[nH]c3ccccc32)c1 [Example 71, 1-(3-isopropoxybenzyl)-1,3-dihydro-2H-benzo[d]imidazol-2-one]"
12,6,"Cc1cc(C)cc(Cn2c(=O)[nH]c3ccccc32)c1 [Example 72, 1-[(3,5-dimethylphenyl)methyl]-1,3-dihydro-2H-benzimidazol-2-one]"
13,24,"CC(=O)N(C)Cc1ccc(Cn2c(=O)[nH]c3ccccc32)cc1 [Example 73, N-methyl-N-(4-((2-oxo-2,3-dihydro-1H-benzo[d]imidazol-1-yl)methyl)benzyl)acetamide]"
14,7,"O=C1OCCN1Cc1ccc(Cn2c(=O)[nH]c3ccccc32)cc1 [Example 74, 3-(4-((2-oxo-2,3-dihydro-1H-benzo[d]imidazol-1-yl)methyl)benzyl) oxazolidin-2-one]"
15,16,"CN(Cc1ccc(Cn2c(=O)[nH]c3ccccc32)cc1)S(=O)(=O)C1CC1 [Example 75, N-methyl-N-(4-((2-oxo-2,3-dihydro-1H-benzo[d]imidazol-1-yl)methyl)benzyl)cyclopropanesulfonamide]"
16,9,"CC(=O)NCc1ccc(Cn2c(=O)n(C(F)F)c3ccccc32)cc1 [Example 76, N-(4-((3-(difluoromethyl)-2-oxo-2,3-dihydro-1H-benzo[d]imidazol-1-yl)methyl)benzyl)acetamide]"
17,6,"CS(=O)(=O)NCc1ccc(Cn2c(=O)n(C(F)F)c3ccccc32)cc1 [Example 77, N-(4-((3-(difluoromethyl)-2-oxo-2,3-dihydro-1H-benzo[d]imidazol-1-yl)methyl)benzyl)methanesulfonamide]"
18,443,"O=c1n(Cc2ccccc2)c2ccccc2n1C(F)F [Example 78, 1-benzyl-3-(difluoromethyl)-1,3-dihydro-2H-benzo[d]imidazol-2-one]"
19,113,"N#CC1(Cc2ncc(Cn3c(=O)[nH]c4ccccc43)cc2Cl)CCC1 [Example 79, 1-((3-chloro-5-((2-oxo-2,3-dihydro-1H-benzo[d]imidazol-1-yl)methyl)pyridin-2-yl)methyl)cyclobutane-1-carbonitrile]"
20,27,"CN1CCN(c2cccc(Cn3c(=O)[nH]c4ccccc43)c2)CC1 [Example 80, 1-(3-(4-methylpiperazin-1-yl)benzyl)-1,3-dihydro-2H-benzo[d]imidazol-2-one]"

row,EC50 [nM],Compound
1,48,"O=c1[nH]c2ccccc2n1Cc1ccc(Cn2ccnn2)cc1 [Example 82, 1-(4-((1H-1,2,3-triazol-1-yl)methyl)benzyl)-1H-benzo[d]imidazol-2 (3H)-one]"
2,13,"C[C@H]1COC(=O)N1Cc1ccc(Cn2c(=O)[nH]c3ccccc32)cc1 [Example 83, (S)-4-methyl-3-(4-((2-oxo-2,3-dihydro-1H-benzo[d]imidazol-1-yl)methyl)benzyl) oxazolidin-2-one]"
3,74,"COc1ccccc1Cn1c(=O)[nH]c2ccc(C)cc21 [Example 86, 1-(2-methoxybenzyl)-6-methyl-1,3-dihydro-2H-benzo[d]imidazol-2-one]"
4,8900,"CC(c1ccccc1)n1c(=O)[nH]c2ccccc21 (stereo not shown) [Example 87, 1-(1-phenylethyl)-1,3-dihydro-2H-benzo[d]imidazol-2-one]"
5,10000,"CC(C1CCCCC1)n1c(=O)[nH]c2ccccc21 (stereo not shown) [Example 88, 1-(1-cyclohexylethyl)-1,3-dihydro-2H-benzo[d]imidazol-2-one]"
6,29,"Cn1c(=O)n(Cc2cccc(OC(F)(F)F)c2)c2ccccc21 [Example 89, 1-methyl-3-(3-(trifluoromethoxy)benzyl)-1,3-dihydro-2H-benzo[d]imidazol-2-one]"
7,227,"COc1cccc(Cn2c(=O)n(C)c3cc(Cl)ccc32)c1 [Example 90, 5-chloro-1-(3-methoxybenzyl)-3-methyl-1,3-dihydro-2H-benzo[d]imidazol-2-one]"
8,1340,"COc1ccccc1Cn1c(=O)[nH]c2cccc(C)c21 [Example 91, 1-(2-methoxybenzyl)-7-methyl-1,3-dihydro-2H-benzo[d]imidazol-2-one]"
9,396,"COc1ccccc1Cn1c(=O)[nH]c2c(C)cccc21 [Example 92, 1-(2-methoxybenzyl)-4-methyl-1,3-dihydro-2H-benzo[d]imidazol-2-one]"
10,1340,"O=c1[nH]c2c(N3CCCC3)cccc2n1Cc1ccccc1 [Example 93, 1-benzyl-4-(pyrrolidin-1-yl)-1,3-dihydro-2H-benzo[d]imidazol-2-one]"
11,9,"CC(=O)NCc1ccc(Cn2c(=O)[nH]c3ccc(F)cc32)cc1 [Example 94, N-(4-((6-fluoro-2-oxo-2,3-dihydro-1H-benzo[d]imidazol-1-yl)methyl)benzyl)acetamide]"
12,6,"CCCS(=O)(=O)NCc1ccc(Cn2c(=O)[nH]c3ccc(F)cc32)cc1 [Example 95, N-(4-((6-fluoro-2-oxo-2,3-dihydro-1H-benzo[d]imidazol-1-yl)methyl)benzyl)propane-1-sulfonamide]"
13,21,"COC1(C(=O)NCc2ccc(Cn3c(=O)[nH]c4ccccc43)cc2)CC1 [Example 96, 1-methoxy-N-(4-((2-oxo-2,3-dihydro-1H-benzo[d]imidazol-1-yl)methyl)benzyl)cyclopropane-1-carboxamide]"
14,45,"O=c1[nH]c2ccccc2n1CCCOc1cccc2cccnc12 [Example 97, 1-(3-(quinolin-8-yloxy)propyl)-1,3-dihydro-2H-benzo[d]imidazol-2-one]"
15,1570,"CS(=O)(=O)NC[C@H]1CC[C@H](Cn2c(=O)[nH]c3ccccc32)CC1 [Example 98, N-(((1r,4r)-4-((2-oxo-2,3-dihydro-1H-benzo[d]imidazol-1-yl)methyl)cyclohexyl)methyl)methanesulfonamide]"
16,2690,"CC(=O)N[C@H]1CC[C@H](Cn2c(=O)[nH]c3ccccc32)CC1 [Example 99, N-((1r,4r)-4-((2-oxo-2,3-dihydro-1H-benzo[d]imidazol-1-yl)methyl)cyclohexyl)acetamide]"
17,784,O=c1[nH]c2cc(Cl)ccc2n1Cc1ccc(Cc2nnco2)cc1 [Example 100]
18,90,"O=C(NCC(F)(F)F)c1cccc(Cn2c(=O)[nH]c3ccccc32)c1 [Example 101, 3-((2-oxo-2,3-dihydro-1H-benzo[d]imidazol-1-yl)methyl)-N-(2,2,2-trifluoroethyl)benzamide]"
19,8,"O=C(c1cccc(Cn2c(=O)[nH]c3ccccc32)c1)N1CCC1 [Example 102, 1-(3-(azetidine-1-carbonyl)benzyl)-1,3-dihydro-2H-benzo[d]imidazol-2-one]"
20,4,"O=C(Cc1cccc(Cn2c(=O)[nH]c3ccccc32)c1)Nc1cccnc1 [Example 103, 2-(3-((2-oxo-2,3-dihydro-1H-benzo[d]imidazol-1-yl)methyl)phenyl)-N-(pyridin-3-yl)acetamide]"
